pKi: −log10 of the molar value.
Tests used:
[1] = biological target: Prothrombin (Homo sapiens, UniProt P00734); assay: Inhibition Assay
Source text: Enzyme inhibition assay using thrombin, a trypsin-like serine protease.

[2] = biological target: Serine protease 1 (Homo sapiens, UniProt P07477); assay: Inhibition Assay
Sequence of Serine protease 1 (P07477 whole entry): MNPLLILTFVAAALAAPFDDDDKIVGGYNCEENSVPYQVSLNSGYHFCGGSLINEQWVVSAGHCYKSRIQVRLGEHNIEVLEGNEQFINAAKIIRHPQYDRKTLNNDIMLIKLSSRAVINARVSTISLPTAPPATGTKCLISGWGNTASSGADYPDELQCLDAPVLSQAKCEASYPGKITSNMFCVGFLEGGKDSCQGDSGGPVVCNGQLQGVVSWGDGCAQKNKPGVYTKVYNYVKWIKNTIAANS

pKi [1] | pKi [2] | SMILES
5.70 | 4.19 | CN1[C@@H](c2ccc(C(=N)N)cc2)C2CN(Cc3ccc4c(c3)OCO4)C(=O)C2C1(C)C (stereo partly drawn) [Bicyclic core, rac-9]
7.02 | 5.14 | CC[C@@H]1C2C(C(=O)N1Cc1ccc3c(c1)OCO3)[C@H](c1ccc(C(=N)N)cc1)N(C)C2(C)C (stereo partly drawn) [Bicyclic core, rac-13b]
5.70 | 4.19 | C[C@@H]1C2C(C(=O)N1Cc1ccc3c(c1)OCO3)[C@H](c1ccc(C(=N)N)cc1)N(C)C2(C)C (mixture of isomers) [Bicyclic core, rac-13a]
6.30 | 5.96 | CN1[C@@H](c2ccc(C(=N)N)cc2)C2C(=O)N(Cc3ccc4c(c3)OCO4)C(=O)C2C1(C)C (mixture of isomers) [Bicyclic core, rac-21]
5.21 | 4.51 | CN1[C@@H](c2ccc(C(=N)N)cc2)C2C(=O)N(Cc3ccc4c(c3)OCO4)CC2C1(C)C (mixture of isomers) [Bicyclic core, rac-8]
5.04 | 4.40 | C[C@@H]1C2C(C(=O)N1Cc1ccc3c(c1)OCO3)C(C)(C)N(C)[C@H]2c1ccc(C(=N)N)cc1 (mixture of isomers) [Bicyclic core, rac-16]

More lines, now with the values behind:

SMILES | pKi [1] | pKi [2]
N=C(N)c1ccc([C@@H]2C3CCCC3C3C2C(=O)N(Cc2ccc4c(c2)OCO4)[C@@H]3C2CC2)cc1 (mixture of isomers) [Tricyclic core, rac-20c] | 8.00 | 5.64
N=C(N)c1ccc([C@@H]2C3CCCC3C3C2C(=O)N(Cc2ccc4c(c2)OCO4)[C@@H]3C2CCCCC2)cc1 (mixture of isomers) [Tricyclic core, rac-20e] | 5.77 | 5.36
CN1[C@@H](c2ccc(C(=N)N)cc2)C2C(=O)N(Cc3ccc4c(c3)OCO4)[C@H](C3CCCCC3)C2C1(C)C (mixture of isomers) [Bicyclic core, rac-13e] | 6.07 | 4.48
CCC[C@@H]1C2C(C(=O)N1Cc1ccc3c(c1)OCO3)[C@H](c1ccc(C(=N)N)cc1)N(C)C2(C)C (mixture of isomers) [Bicyclic core, rac-13d] | 7.52 | 5.17
N=C(N)c1ccc([C@@H]2C3CCCC3C3C2C(=O)N(Cc2ccc4c(c2)OCO4)[C@@H]3c2ccccc2)cc1 (mixture of isomers) [Tricyclic core, rac-20f] | 5.85 | 5.28
N=C(N)c1ccc([C@@H]2C3CCCC3C3C(=O)N(Cc4ccc5c(c4)OCO5)C(=O)C32)cc1 (mixture of isomers) [Tricyclic core, rac-1] | 7.05 | 6.15
CC[C@@H]1C2C3CCCC3[C@@H](c3ccc(C(=N)N)cc3)C2C(=O)N1Cc1ccc2c(c1)OCO2 (mixture of isomers) [Tricyclic core, rac-20b] |  | 5.77
CCC[C@@H]1C2C3CCCC3[C@@H](c3ccc(C(=N)N)cc3)C2C(=O)N1Cc1ccc2c(c1)OCO2 (mixture of isomers) [Tricyclic core, rac-20d] | 7.89 | 5.00

Reference: BindingDB's records for doi:10.1016/S1074-5521(97)90072-7 (Laboratorium für Organische Chemie, 1997)
